The source of these data is patent US11345681B1, “Inhibitors of fibroblast growth factor receptor kinases” (Kinnate Biopharma Inc., priority 2020, dated 2022).

In general, IC50 refers to the point on the concentration scale where inhibition reaches its midpoint.

This test has as its target Wild type FGFR2 (Homo sapiens (Human), UniProt P21802). Briefly: FGFR2 kinase assay (fluorescence-based microfluidic mobility shift assay). It counts as biochemical. As to conditions: wild type FGFR2 0.06 nM, 100 μM ATP, 80 minutes at room temperature.

Sequence of Wild type FGFR2 (P21802 22-821): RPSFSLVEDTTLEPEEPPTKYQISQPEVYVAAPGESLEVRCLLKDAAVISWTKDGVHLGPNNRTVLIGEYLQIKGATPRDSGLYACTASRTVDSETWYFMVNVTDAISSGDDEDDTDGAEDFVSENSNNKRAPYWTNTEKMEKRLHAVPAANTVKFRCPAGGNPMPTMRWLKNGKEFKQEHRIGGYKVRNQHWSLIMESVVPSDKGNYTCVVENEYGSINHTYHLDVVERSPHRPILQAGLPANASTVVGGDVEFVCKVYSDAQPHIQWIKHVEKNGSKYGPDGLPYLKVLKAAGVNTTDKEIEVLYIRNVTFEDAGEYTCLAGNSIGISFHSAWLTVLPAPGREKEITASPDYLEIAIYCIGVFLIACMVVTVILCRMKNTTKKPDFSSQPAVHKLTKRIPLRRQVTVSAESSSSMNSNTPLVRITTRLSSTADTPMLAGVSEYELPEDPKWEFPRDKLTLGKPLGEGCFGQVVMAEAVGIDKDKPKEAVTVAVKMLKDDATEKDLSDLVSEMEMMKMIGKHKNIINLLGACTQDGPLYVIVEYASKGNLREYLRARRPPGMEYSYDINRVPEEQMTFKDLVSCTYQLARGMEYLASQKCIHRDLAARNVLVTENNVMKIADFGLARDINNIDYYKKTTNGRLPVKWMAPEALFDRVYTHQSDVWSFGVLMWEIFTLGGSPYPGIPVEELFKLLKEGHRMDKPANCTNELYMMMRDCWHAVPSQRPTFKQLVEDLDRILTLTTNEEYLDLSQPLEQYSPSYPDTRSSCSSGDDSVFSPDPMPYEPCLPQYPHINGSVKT

As for `C=CC(=O)N1CC[C@H](n2nc(C#Cc3c(F)cc4c(ncn4CC)c3F)c(C(N)=O)c2NCCN2CCOCC2)C1` [Example 112, 3-[2-(1-Ethyl-4,6-difluoro-1,3-benzodiazol-5-yl)ethynyl]-5-[[2-(morpholin-4-yl)ethyl]amino]-1-[(3S)-1-(prop-2-enoyl)pyrrolidin-3-yl]pyrazole-4-carboxamide], the IC50 (class symbols) is no more than 100 nM.
On the same count and under the same terms, to `C=CC(=O)N1C[C@@H](n2nc(C#Cc3ccc4nn(C)cc4c3)c(C(N)=O)c2NC)C[C@@H]1COC` [Example 9, 1-((3S,5R)-1-acryloyl-5-(methoxymethyl)pyrrolidin-3-yl)-3-((2-methyl-2H-indazol-5-yl)ethynyl)-5-(methylamino)-1H-pyrazole-4-carboxamide] belongs 100 to 1000 nM; to `C=CC(=O)N1C[C@@H](n2nc(C#Cc3c(F)cc4c(ncn4C4CC4)c3F)c(C(N)=O)c2NC)C[C@H]1CF` [Example 181, 3-[2-(1-Cyclopropyl-4,6-difluoro-1,3-benzodiazol-5-yl)ethynyl]-1-[(3S,5S)-5-(fluoromethyl)-1-(prop-2-enoyl)pyrrolidin-3-yl]-5-(methylamino)pyrazole-4-carboxamide], no more than 100 nM.
`C=CC(=O)N1C[C@@H](n2nc(C#Cc3cc4ncc(Cl)cc4cc3F)c(C(N)=O)c2NC)C[C@@H]1COC` [Example 256, 3-[2-(3-Chloro-6-fluoroquinolin-7-yl)ethynyl]-1-[(3S,5R)-5-(methoxymethyl)-1-(prop-2-enoyl)pyrrolidin-3-yl]-5-(methylamino)pyrazole-4-carboxamide]: the half-maximal inhibitory concentration (IC50) (class symbols) is no more than 100 nM.
On the same count and under the same terms, to `C=CC(=O)N1C[C@@H](n2nc(C#Cc3cc4ncn(CC)c4cc3Cl)c(C(N)=O)c2N)C[C@@H]1CO` [Example 194, 5-Amino-3-[2-(6-chloro-1-ethyl-1,3-benzodiazol-5-yl)ethynyl]-1-[(3S,5R)-5-(hydroxymethyl)-1-(prop-2-enoyl)pyrrolidin-3-yl]pyrazole-4-carboxamide] belongs no more than 100 nM; to `C=CC(=O)N1C[C@@H](n2nc(C#Cc3cc4ncn([C@H]5CC5(F)F)c4cc3Cl)c(C(N)=O)c2NC)C[C@@H]1COC` (single isomer, unassigned) [Example 280], no more than 100 nM; to `C=CC(=O)N1CC[C@H](n2nc(C#Cc3c(F)cc4c(ncn4CC)c3F)c(C(N)=O)c2NCCOC)C1` [Example 119, 3-[2-(1-Ethyl-4,6-difluoro-1,3-benzodiazol-5-yl)ethynyl]-5-[(2-methoxyethyl)amino]-1-[(3S)-1-(prop-2-enoyl)pyrrolidin-3-yl]pyrazole-4-carboxamide], no more than 100 nM.
Regarding `CNc1c(C(N)=O)c(C#Cc2cc3ncn(C4CC4)c3cc2F)nn1[C@H]1C[C@H](COC)N(C(=O)C#CC(C)(C)O)C1` [Example 203, 3-((1-Cyclopropyl-6-fluoro-1H-benzo[d]imidazol-5-yl)ethynyl)-1-((3S,5R)-1-(4-hydroxy-4-methylpent-2-ynoyl)-5-(methoxymethyl)pyrrolidin-3-yl)-5-(methylamino)-1H-pyrazole-4-carboxamide], under “class symbols”, the 50% inhibitory concentration (IC50) was no more than 100 nM.
As to `C=C(F)C(=O)N1CC(n2nc(C#Cc3c(F)cc4c(ncn4C4CC4)c3F)c(C(N)=O)c2NC)C1` [Example 173, 3-((1-Cyclopropyl-4,6-difluoro-1H-benzo[d]imidazol-5-yl)ethynyl)-1-(1-(2-fluoroacryloyl)azetidin-3-yl)-5-(methylamino)-1H-pyrazole-4-carboxamide], for the setting “class symbols”, the IC50 is no more than 100 nM.
With `C=CC(=O)N1C[C@@H](n2nc(C#Cc3c(F)cc4c(ncn4C)c3F)c(C(N)=O)c2NC)C[C@@H]1COC` [Example 11], the concentration for half-maximal inhibition (IC50) (class symbols) is no more than 100 nM.
For the compound `C=CC(=O)N1C[C@@H](n2nc(C#Cc3ccn4ccnc4n3)c(C(N)=O)c2NC)C[C@@H]1COC` [Example 58, 3-(2-[Imidazo[1,2-a]pyrimidin-7-yl]ethynyl)-1-[(3S,5R)-5-(methoxymethyl)-1-(prop-2-enoyl)pyrrolidin-3-yl]-5-(methylamino)pyrazole-4-carboxamide], the IC50 (given as numeric bound) was greater than 500 nM.
On to `C=CC(=O)N1C[C@@H](n2nc(C#Cc3c(F)cc4c(ncn4CC)c3F)c(C(N)=O)c2NCC2CC2)C[C@@H]1COC` [Example 109, 5-[(Cyclopropylmethyl)amino]-3-[2-(1-ethyl-4,6-difluoro-1,3-benzodiazol-5-yl)ethynyl]-1-[(3S,5R)-5-(methoxymethyl)-1-(prop-2-enoyl)pyrrolidin-3-yl]pyrazole-4-carboxamide], for which, under “class symbols”, the IC50 is no more than 100 nM.
On the same count and under the same terms, then `C=CC(=O)N1C[C@@H](n2nc(C#Cc3cc4ncn(CC)c4c(F)c3F)c(C(N)=O)c2NC)C[C@@H]1COC(F)F` [Example 154, 1-[(3S,5R)-5-[(Difluoromethoxy)methyl]-1-(prop-2-enoyl)pyrrolidin-3-yl]-3-[2-(1-ethyl-6,7-difluoro-1,3-benzodiazol-5-yl)ethynyl]-5-(methylamino)pyrazole-4-carboxamide], with no more than 100 nM.
Still for that read-out and setting: then `C=CC(=O)N1C[C@@H](n2nc(C#Cc3ccc4c(c3)ncn4C(F)F)c(C(N)=O)c2NC)C[C@@H]1COC` [Example 70, 3-[2-[1-(Difluoromethyl)-1,3-benzodiazol-5-yl]ethynyl]-1-[(3S,5R)-5-(methoxymethyl)-1-(prop-2-enoyl)pyrrolidin-3-yl]-5-(methylamino)pyrazole-4-carboxamide], with no more than 100 nM; and `C=CC(=O)N1C[C@@H](n2nc(C#Cc3cc4ncc(Cl)n4cc3F)c(C(N)=O)c2NC)C[C@@H]1COC` [Example 290, 3-(2-{3-Chloro-6-fluoroimidazo[1,2-a]pyridin-7-yl}ethynyl)-1-[(3S,5R)-5-(methoxymethyl)-1-(prop-2-enoyl)pyrrolidin-3-yl]-5-(methylamino)pyrazole-4-carboxamide], with no more than 100 nM; and `C=CC(=O)N1C[C@@H](n2nc(C#Cc3cc4ncn(C5CC5)c4cc3F)c(C(N)=O)c2NC)C[C@H]1CF` [Example 180, 3-[2-(1-Cyclopropyl-6-fluoro-1,3-benzodiazol-5-yl)ethynyl]-1-[(3S,5S)-5-(fluoromethyl)-1-(prop-2-enoyl)pyrrolidin-3-yl]-5-(methylamino)pyrazole-4-carboxamide], with no more than 100 nM.
Still for that read-out and setting: to `C=CC(=O)N1C[C@@H](n2nc(C#Cc3ccc4c(c3)ncn4C3CC3)c(C(N)=O)c2NC)C[C@@H]1CF` [Example 178, 1-((3S,5R)-1-Acryloyl-5-(fluoromethyl)pyrrolidin-3-yl)-3-((1-cyclopropyl-1H-benzo[d]imidazol-5-yl)ethynyl)-5-(methylamino)-1H-pyrazole-4-carboxamide] belongs no more than 100 nM; to `C=CC(=O)N1C[C@@H](n2nc(C#Cc3cc4ncc(C5CC5)n4cc3F)c(C(N)=O)c2NC)C[C@@H]1COC` [Example 283, 3-(2-{3-Cyclopropyl-6-fluoroimidazo[1,2-a]pyridin-7-yl}ethynyl)-1-[(3S,5R)-5-(methoxymethyl)-1-(prop-2-enoyl)pyrrolidin-3-yl]-5-(methylamino)pyrazole-4-carboxamide], no more than 100 nM.
Consider `C=CC(=O)N1C[C@@H](n2nc(C#Cc3c(F)cc4c(ncn4C4CC4)c3F)c(C(N)=O)c2N)C[C@@H]1COC(F)F` [Example 215, 5-Amino-3-[2-(1-cyclopropyl-4,6-difluoro-1,3-benzodiazol-5-yl)ethynyl]-1-[(3S,5R)-5-[(difluoromethoxy)methyl]-1-(prop-2-enoyl)pyrrolidin-3-yl]pyrazole-4-carboxamide], for which, under “class symbols”, the IC50 was no more than 100 nM.
Still for that read-out and setting: to `C=CC(=O)N1C[C@@H](n2nc(C#Cc3ccc4c(C)noc4c3)c(C(N)=O)c2NC)C[C@@H]1COC` [Example 44, 1-[(3S,5R)-5-(methoxymethyl)-1-(prop-2-enoyl)pyrrolidin-3-yl]-3-[2-(3-methyl-1,2-benzoxazol-6-yl)ethynyl]-5-(methylamino)pyrazole-4-carboxamide] belongs no more than 100 nM.
In the case of `C=CC(=O)N1C[C@@H](n2nc(C#Cc3ccc4nccn4c3)c(C(N)=O)c2NC)C[C@@H]1COC` [Example 55, 1-((3S,5R)-1-Acryloyl-5-(methoxymethyl)pyrrolidin-3-yl)-3-(imidazo[1,2-a]pyridin-6-ylethynyl)-5-(methylamino)-1H-pyrazole-4-carboxamide], for the setting “given as numeric bound”, the IC50 was greater than 500 nM.
With `C=CC(=O)N1CC(n2nc(C#Cc3cc4ncn(C5CC5)c4cc3F)c(C(N)=O)c2N)C1` [Example 202, 5-Amino-3-[2-(1-cyclopropyl-6-fluoro-1,3-benzodiazol-5-yl)ethynyl]-1-[1-(prop-2-enoyl)azetidin-3-yl]pyrazole-4-carboxamide], the IC50 (class symbols) was no more than 100 nM.
Still for that read-out and setting: then `C=CC(=O)N1C[C@@H](n2nc(C#Cc3cc(OC)c4c(C5CC5)cnn4c3)c(C(N)=O)c2NC)C[C@@H]1COC` [Example 284, 3-(2-{3-Cyclopropyl-4-methoxypyrazolo[1,5-a]pyridin-6-yl}ethynyl)-1-[(3S,5R)-5-(methoxymethyl)-1-(prop-2-enoyl)pyrrolidin-3-yl]-5-(methylamino)pyrazole-4-carboxamide], with 100 to 1000 nM; and `C=CC(=O)N1C[C@@H](n2nc(C#Cc3cc4ncc(C(F)F)cc4cc3F)c(C(N)=O)c2NC)C[C@@H]1COC` [Example 273, 3-{2-[3-(Difluoromethyl)-6-fluoroquinolin-7-yl]ethynyl}-1-[(3S,5R)-5-(methoxymethyl)-1-(prop-2-enoyl)pyrrolidin-3-yl]-5-(methylamino)pyrazole-4-carboxamide], with no more than 100 nM; and `C=CC(=O)N1C[C@@H](n2nc(C#Cc3cc4ncn(C)c4cc3Cl)c(C(N)=O)c2NC)C[C@@H]1COC` [Example 88, 3-[2-(6-Chloro-1-methyl-1,3-benzodiazol-5-yl)ethynyl]-1-[(3S,5R)-5-(methoxymethyl)-1-(prop-2-enoyl)pyrrolidin-3-yl]-5-(methylamino)pyrazole-4-carboxamide], with no more than 100 nM.
As to `C=CC(=O)N1C[C@@H](n2nc(C#Cc3cc4nc(C)n(C5COC5)c4cc3Cl)c(C(N)=O)c2NC)C[C@@H]1COC` [Example 249, 3-{2-[6-chloro-2-methyl-1-(oxetan-3-yl)-1,3-benzodiazol-5-yl]ethynyl}-1-[(3S,5R)-5-(methoxymethyl)-1-(prop-2-enoyl)pyrrolidin-3-yl]-5-(methylamino)pyrazole-4-carboxamide], the IC50 (class symbols) is no more than 100 nM.
